Publication PMC11474028, “Lipopeptide antibiotics disrupt interactions of undecaprenyl phosphate with UptA” (Proceedings of the National Academy of Sciences of the …, 2024)

Tests used:
UptA:C55-P complex = assay: Native MS of UptA:C55-P complex in the presence of antibiotics; type: binding, Bacillus subtilis; conditions: 2.5 µM UptA, 10 µM C55-P, 0 to 100 µM antibiotic, 75 V; mean of three independent replicates
Procedure: (§1) Amphomycin and derivatives are known to kill bacteria by forming complexes with free C55-P ([46]), however, whether or not this involves a direct interaction with a protein cellular target is not known. We therefore investigated how amphomycin affects the UptA:C55-P complex. We recorded spectra for solutions containing 2.5 µM UptA, 10 µM C55-P and then equilibrated aliquots with increasing concentrations of amphomycin.
(A) Mass spectra (6+ charge state) for solutions containing 2.5 µM UptA and 10 µM C55-P incubated with 0 to 100 µM amphomycin. (B) Relative intensity of C55-P bound to UptA in the presence of amphomycin and daptomycin. The bar represents the mean of three independent replicates shown as data points and error bars are SD. […] (C) Fraction of C55-P bound to UptA in the presence of cell wall targeting antibiotics. Each sample contains 2.5 µM UptA, 10 µM C55-P and 100 µM of indicated antibiotic, and spectra were acquired using the same instrument settings and collisional activation of 75 V. The bar represents the mean of three independent replicates shown as data points, and the error bar represents SD. […]
(§2) Detailed experimental procedures are provided in SI Appendix. Briefly, UptA (wild type and mutants) was expressed in E. coli C43(DE3) cells (Lucigen) with GFP fusion on the C-terminus and solubilized from the membrane fraction by n-dodecyl-β-D-maltopyranoside (DDM). After purification by affinity chromatography, the GFP was cleaved by TEV protease and removed, and UptA was further purified by size-exclusion chromatography in a buffer containing 20 mM Tris-HCl (pH 8.0), 200 mM NaCl, 0.02% DDM. Before measurements, proteins were buffer-exchanged into 0.05% LDAO, 200 mM ammonium acetate at the desired pH using a centrifugal buffer exchange device (Micro Bio-Spin 6, Bio-Rad). Stock solutions of lipids were prepared from chloroform/methanol solution by evaporating aliquots of known volume in a SpeedVac. After drying, the lipid films were weighed and resuspended to a final concentration of 0.5 mM in 200 mM ammonium acetate and 0.05% LDAO by vertexing. Stock solutions of 0.5 mM amphomycin, aspartocin D, daptomycin, polymyxin B, polymyxin E, and bacitracin were made in the same buffer. All experiments were repeated three times from newly prepared stock solutions. Native mass spectrometry was performed on a Q-Exactive hybrid quadrupole-Orbitrap mass spectrometer (Thermo Fisher Scientific, Bremen, Germany), and lipid identification was performed on an Orbitrap Eclipse Tribrid mass spectrometer (Thermo). […]

UptA [1] = target: T1, UptA (Bacillus subtilis, UniProt O31823); assay: Native MS of antibiotic binding to UptA; conditions: 2.5 µM UptA, 10 µM C55-P, antibiotic up to 100 µM (polymyxins 100 µM), 0.05% LDAO, 200 mM ammonium acetate, 75 V
Procedure: We next investigate how UptA and its complex with C55-P interact with a range of cell-wall targeting antibiotics including the lipopeptides daptomycin and amphomycin. […] We investigated whether daptomycin affects C55-P binding to UptA by recording spectra for solutions containing 2.5 µM UptA, 10 µM C55-P, and different concentrations of daptomycin.
as §1
The amphiphilic nature of daptomycin and amphomycin raises the possibility that these lipopeptide antibiotics may promiscuously bind to UptA in a nonspecific manner. We probe this possibility by recording spectra for UptA:C55-P solutions in the presence of 100 µM polymyxin B and 100 µM polymyxin E. These polymyxins are membrane-disrupting lipopeptides that target the outer membrane lipopolysaccharides in Gram-negative bacteria ([47]) but without a known affinity for C55-P or UptA.
To this end, we prepared UptA:C55-P mixtures and then equilibrated aliquots with bacitracin and vancomycin.
as §2

UptA [2] = target: T1, UptA; assay: biochemical; type: binding; conditions: for binding to UptA by lipid chain length (in words): 4 µM UptA, 10-fold molar excess (40 µM) of lipid, pH 8.0, 200 mM ammonium acetate, 0.05% LDAO
Procedure: We explored the binding affinity of UptA toward C55-P by recording mass spectra for solutions containing 2.5 µM UptA and 0 to 40 µM C55-P in 200 mM ammonium acetate, 0.05% LDAO at pH 8.0. […] Further increase in the concentration of C55-P enhanced the intensity of the UptA:C55-P complex, together with the emergence of additional binding events (Fig. 2A). We deconvoluted the spectra ([34]) to extract mean relative intensities of bound and unbound forms of UptA in the spectral series.
To investigate the binding selectivity of UptA for monophosphate (C55-P) versus diphosphate (C55-PP) forms of the lipid carrier, we performed comparative binding assays. First, we recorded mass spectra for a mixture of UptA with increasing concentrations of C55-PP (SI Appendix, Fig. S3). […] We then fit the data to Hill equation to obtain an apparent Kd for this system.
UptA is a member of the DedA family of transporters whose cellular functions are potentially driven by proton-motive force and provide conditional fitness to bacteria under alkaline conditions ([25], [26], [36]). […] To this end, we equilibrated C55-P with UptA at a protein/ligand molar ratio of 1:4 in a buffer of the same composition but at pH 8.0 and 5.0. […] As a negative control, we tested for pH sensitivity of C55-P binding to MraY, the latter being the downstream enzyme in the peptidoglycan pathway that couples UM5 to C55-P. To this end, we equilibrated MraY and C55-P at a molar ratio of 1:4 in a buffer of pH 8.0 and pH 5.0.
Next, we investigated the chain length selectivity of UptA by testing its interaction with geranylgeranyl phosphate (C20-P), hexaprenyl phosphate (C30-P), and C55-P; the latter representing the native form of the lipid carrier in the model organisms B. subtilis and E. coli ([39]). For this experiment, we incubated 4 µM UptA with a 10-fold molar excess of C20-P, C30-P, and C55-P at pH 8.0 and recorded spectra under the same conditions. […] The length and stereochemistry of lipid tails can influence their interactions with membrane proteins ([40]).
Detailed experimental procedures are provided in SI Appendix. Briefly, UptA (wild type and mutants) was expressed in E. coli C43(DE3) cells (Lucigen) with GFP fusion on the C-terminus and solubilized from the membrane fraction by n-dodecyl-β-D-maltopyranoside (DDM). After purification by affinity chromatography, the GFP was cleaved by TEV protease and removed, and UptA was further purified by size-exclusion chromatography in a buffer containing 20 mM Tris-HCl (pH 8.0), 200 mM NaCl, 0.02% DDM. Before measurements, proteins were buffer-exchanged into 0.05% LDAO, 200 mM ammonium acetate at the desired pH using a centrifugal buffer exchange device (Micro Bio-Spin 6, Bio-Rad). Stock solutions of lipids were prepared from chloroform/methanol solution by evaporating aliquots of known volume in a SpeedVac. After drying, the lipid films were weighed and resuspended to a final concentration of 0.5 mM in 200 mM ammonium acetate and 0.05% LDAO by vertexing.

UptA [3] = target: T1, UptA; assay: Native MS of phospholipid binding to UptA; conditions: for UptA-lipid complexes formed (stoichiometry, in words): 4 µM UptA with 10 µM lipid, native MS
Description: Proteins belonging to the DedA family are a widespread family of transporters and are proposed to flip diverse lipids, including carrier lipids and membrane phospholipids. We therefore probed the interaction of UptA with membrane phospholipids to understand whether the latter could modulate its function. For this purpose, we selected anionic phosphatidylglycerols (PG) and zwitterionic phosphatidylethanolamines (PE), representing the major classes of phospholipid headgroups found in B. subtilis ([41], [42]). We recorded mass spectra of solutions containing 4 µM UptA incubated with 10 µM a15:0-i15:0 PE and 10 µM a15:0-i15:0 PG (a15:0, anteiso-pentadecanoic acid; i15:0, iso-pentadecanoic acid). The fatty acid composition of these lipids closely mimics those of native B. subtilis lipids (see below). The resulting spectra display peaks corresponding to UptA in apo and lipid-bound forms in both cases (Fig. 4 A and B). […] We therefore hypothesize that UptA interacts more favorably with PG than with PE.
To verify the lipid binding preference of UptA with more native-like lipids, we prepared lipid extracts from B. subtilis membranes (Materials and Methods). We then incubate an aliquot of the resulting crude lipids (SI Appendix, Fig. S8) with UptA. The spectra yielded peaks assigned to UptA in complex with cardiolipins (~1,326 Da) and a range of phospholipids, predominantly 694 Da, 721 Da, 748 Da, and 776 Da species (Fig. 4 D and E). To identify these lipids, we performed tandem MS/MS, isolating the lipid species and subjecting it to collisional activation. […] The fatty acid fragments are mixed populations, predominantly 15:0-15:0, 15:0-17:0, 16:0-16:0, and 16:0-18:1 (SI Appendix, Fig. S9) which are the typical fatty acids from B. subtilis membrane phospholipids ([42]). We therefore conclude that UptA interacts more favorably with the anionic cardiolipins and phosphatidylglycerols than with the zwitterionic phosphatidylethanolamines in the membrane lipid extracts.
as §2
Lipid extracts from B. Subtilis
B. subtilis strain 168 (ATCC 23857) was cultivated in […] LB media at 37 °C until OD600 nm 1.2 under aurobic conditions. Cells were harvested by centrifugation at 4,000 g for 20 minutes and resuspended in 20 mM Tris-HCl (pH 8.0), 150 mM NaCl. Cells were lysed by 5-6 passes through a microfluidizer at 20,000 psi. The lysates were clarified by centrifugation at 4,000 g for 10 minutes, and the totoal membrane was pelleted at 120,000 g for 1 h. The membrane pellet was ressupended […]

T1 sequence (O31823 whole entry): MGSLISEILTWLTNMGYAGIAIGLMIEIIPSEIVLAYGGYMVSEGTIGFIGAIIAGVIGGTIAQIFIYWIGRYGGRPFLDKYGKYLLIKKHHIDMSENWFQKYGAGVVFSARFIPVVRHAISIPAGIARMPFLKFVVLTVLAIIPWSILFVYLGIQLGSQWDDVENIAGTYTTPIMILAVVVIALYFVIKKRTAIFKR

**Q.** What does the source list for polymyxin E?
**A.** effect of antibiotic on UptA:C55-P complex (in words) (UptA:C55-P complex): attenuation of C55-P binding to UptA (SI Appendix, Fig. S10), but this effect is less significant compared to the impact of amphomycin analogs; binding of antibiotic to UptA (in words) (UptA [1]): do not bind to UptA

**Q.** `CC(C)=CCC/C(C)=C/CC/C(C)=C/CC/C(C)=C/COP(=O)(O)O` [C20-P, geranylgeranyl phosphate] was tested. Which “binding to UptA by lipid chain length (in words)” value (UptA [2]) did it give?
**A.** The value was “low-intensity peaks corresponding by mass to UptA:C20-P complexes, leaving most of the protein in the apo form”.

**Q.** Which results are given for polymyxin B?
**A.** effect of antibiotic on UptA:C55-P complex (in words) (UptA:C55-P complex): attenuation of C55-P binding to UptA (SI Appendix, Fig. S10), but this effect is less significant compared to the impact of amphomycin analogs; binding of antibiotic to UptA (in words) (UptA [1]): do not bind to UptA

**Q.** With `CCC(C)CCCCCCCCCCC(=O)OC[C@H](COP(=O)(O)OCCN)OC(=O)CCCCCCCCCCCC(C)C` (stereo partly shown) [a15:0-i15:0 PE] as the compound, how does the “UptA-lipid complexes formed (stoichiometry, in words)” value (UptA [3]) read?
**A.** Its value is “only a 1:1 complex”.

**Q.** `CC(C)=CCC/C(C)=C/CC/C(C)=C/CC/C(C)=C\CC/C(C)=C\CC/C(C)=C\CC/C(C)=C\CC/C(C)=C\CC/C(C)=C\CC/C(C)=C\CC/C(C)=C\COP(=O)(O)OP(=O)(O)O` [C55-PP, undecaprenyl diphosphate] was tested. Which “selectivity of UptA for C55-P versus C55-PP (in words)” value (UptA [2]; native MS, 200 mM ammonium acetate, pH 8, 0.05% LDAO) did it give?
**A.** The value was “UptA bind C55-PP but with lesser intensities compared to C55-P”.

**Q.** And the Kd (UptA [2]; read-out: apparent Kd for the binding of one ligand molecule (1×) to UptA)?
**A.** The Kd was 15.3 µM.

**Q.** With `CC[C@@H](C)CCCCCCCCCCC(=O)OC[C@H](COP(=O)([O-])OCC(O)CO)OC(=O)CCCCCCCCCCCC(C)C.[Na+]` (stereo partly shown) [a15:0-i15:0 PG] as the compound, how does the “mean relative intensity of UptA in complex with phospholipid, comparison (in words)” value (UptA [3]; 4 µM UptA with 10 µM lipid (stated for a15:0-i15:0 lipids), mean of three independent replicates) read?
**A.** Its value is “higher than for a15:0-i15:0 PE”.

**Q.** What about the “UptA-lipid complexes formed (stoichiometry, in words)” value (UptA [3]) of the same compound?
**A.** The value was 1:1 and 1:2 protein-lipid complexes.

**Q.** With vancomycin as the compound, how does the “effect of antibiotic on UptA:C55-P complex (in words)” value (UptA:C55-P complex) read?
**A.** The value was “no observable impact on C55-P binding”.

**Q.** And the “binding of antibiotic to UptA (in words)” value (UptA [1])?
**A.** The value was “bind to UptA but with very low intensities”.

**Q.** With `CC(C)=CCCC(C)=CCCC(C)=CCCC(C)=CCCC(C)=CCCC(C)=CCOP(=O)(O)O` [C30-P, hexaprenyl phosphate] as the compound, how does the “binding to UptA by lipid chain length (in words)” value (UptA [2]) read?
**A.** Its value is “higher binding affinity of UptA to C30-P compared to C20-P”.
